Laboratory results published in patent publication US20250388575A1, “HETEROBIFUNCTIONAL COMPOUNDS AND METHODS OF TREATING DISEASE” (Halda Therapeutics OpCo, Inc., priority 2022, published 2025).
pKd: −log10 of the molar value. Read-outs that look alike come from different tables or passages of the source.

Experiments:
BRD4-BD1 = BRD4-BD1 (Homo sapiens (Human), UniProt O60885); test: bromoKdELECT assay for binding affinity to BRD4-BD1; conditions: 11-point 3-fold dilution
Description: (§1) Compounds were tested using a bromoKdELECT assay. T7 phage strains displaying bromodomains were grown in parallel in 24-well blocks in an E. coli host derived from the BL21 strain. E. coli were grown to log-phase and infected with T7 phage from a frozen stock (multiplicity of infection=0.4) and incubated with shaking at 32° C. until lysis (90-150 minutes). The lysates were centrifuged (5,000×g) and filtered (0.2 μm) to remove cell debris. Streptavidin-coated magnetic beads were treated with biotinylated small molecule or acetylated peptide ligands for 30 minutes at room temperature to generate affinity resins for bromodomain assays. The liganded beads were blocked with excess biotin and washed with blocking buffer (SeaBlock (Pierce), 1% BSA, 0.05% Tween 20, 1 mM DTT) to remove unbound ligand and to reduce nonspecific phage binding. Binding reactions were assembled by combining bromodomains, liganded affinity beads, and test compounds in 1× binding buffer (17% SeaBlock, 0.33×PBS, 0.04% Tween 20, 0.02% BSA, 0.004% Sodium azide, 7.4 mM DTT). Test compounds were prepared as 1000× stocks in 100% DMSO. Kds were determined using an 11-point 3-fold compound dilution series with one DMSO control point. All compounds for Kd measurements are distributed by acoustic transfer (non-contact dispensing) in 100% DMSO. The compounds were then diluted directly into the assays such that the final concentration of DMSO was 0.09%. All reactions performed in polypropylene 384-well plates. Each was a final volume of 0.02 ml. The assay plates were incubated at room temperature with shaking for 1 hour and the affinity beads were washed with wash buffer (1×PBS, 0.05% Tween 20). The beads were then resuspended in elution buffer (1×PBS, 0.05% Tween 20, 2 μM non-biotinylated affinity ligand) and incubated at room temperature with shaking for 30 minutes. The bromodomain concentration in the eluates was measured by qPCR.

BRD4-BD2 = BRD4-BD2 (Homo sapiens (Human), UniProt O60885); test: bromoKdELECT assay for binding affinity to BRD4-BD2; conditions: 11-point 3-fold dilution
Description: as §1

[1] = tested on: T-Rex 293 cell line SC3 cells lacking increased expression of androgen receptor protein; test: Cellular growth inhibition, T-Rex 293 SC3 cells lacking increased androgen receptor expression (no doxycycline), CellTiter-Glo; assay type: cell-based; conditions: T-Rex 293 SC3 cells lacking increased androgen receptor expression (not exposed to doxycycline), 72 hours, CellTiter-Glo; read-out: GI50
Procedure, shortened: (§2)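 SC3, a T-Rex 293 clone with doxycycline-inducible wild-type androgen receptor, was seeded in phenol red-free DMEM with 10% charcoal-dextran FBS, with or without 10 ng/mL doxycycline. Compound added at 24 h (0.5% DMSO) for 72 h at 37° C. CellTiter-Glo 2.0 luminescence; GI50 from four-parameter fit.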

VCaP cells = test: Cellular growth inhibition assay for VCaP cells, CellTiter-Glo; assay type: cell-based, human; conditions: VCaP cells, 72 hours, CellTiter-Glo, read-out: GI50
Procedure, shortened: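 GI50 values come from four-parameter curve fits of luminescence data normalized to a zero baseline. Compound, in medium with 0.5% DMSO, was added one day after plating and left for 72 h before CellTiter-Glo 2.0 addition.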

[2] = tested on: T-Rex 293 cell line SC3 cells having increased expression of androgen receptor protein; test: Cellular growth inhibition, T-Rex 293 SC3 cells with increased androgen receptor expression (doxycycline), CellTiter-Glo; assay type: cell-based; conditions: T-Rex 293 SC3 cells with increased androgen receptor expression (exposed to 10 ng/mL doxycycline), 72 hours, CellTiter-Glo; read-out: GI50
Procedure, shortened: as §2

T47D cells = test: Cellular growth inhibition assay for T47D cells, CellTiter-Glo; assay type: cell-based, human; conditions: 72 hours treatment, CellTiter-Glo 2.0
Procedure, shortened: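 Cells are plated at 3000/well and allowed 24 h before treatment. Test compound in medium containing 0.5% DMSO is then added, with DMSO-only wells as negative control, and plates are incubated 72 h at 37 °C. ATP luminescence (CellTiter-Glo 2.0) is then fitted to four parameters to derive GI50.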

| pKd (BRD4-BD1) | pKd (BRD4-BD2) | GI50 (VCaP cells; Homo sapiens) [µM] | GI50 (T47D cells) [µM] | GI50 (VCaP cells) [µM] | GI50 (T47D cells; Homo sapiens) [µM] | Structure (SMILES) | GI50 [1] [µM] | GI50 [2] [µM] |
| --- | --- | --- | --- | --- | --- | --- | --- | --- |
| 6.30 to 7.30 | 6.30 to 7.30 | < 0.5 | – | – | – | CCS(=O)(=O)Cc1ccc(Oc2cccc(CCCOC3CCN(c4ccc(C(=O)N[C@H]5CC[C@H](Oc6ccc(C#N)c(Cl)c6)CC5)nn4)CC3)c2F)c(-c2cn(C)c(=O)c3[nH]ccc23)c1 [I-29] | < 0.5 | < 0.5 |
| – | – | – | < 0.5 | < 0.5 | – | Cn1cc(-c2cc(S(C)(=O)=O)ccc2Oc2cccc(CCCC3CCN(c4ncc(C(=O)N[C@H]5CC[C@H](Oc6ccc(C#N)c(Cl)c6)CC5)cn4)CC3)c2)c2cc[nH]c2c1=O [I-233] | < 0.5 | < 0.5 |
| – | – | < 0.5 | – | – | < 0.5 | Cn1cc(-c2cc(N3CCCS3(=O)=O)ccc2Oc2ccc(CCC3CCN(c4ccc(C(=O)NC5CCC(Oc6ccc(C#N)c(Cl)c6)CC5)nn4)CC3)cc2)c2cc[nH]c2c1=O (centres unmarked) [I-239, N-[4-(3-chloro-4-cyano-phenoxy)cyclohexyl]-6-[4-[2-[4-[4-(1,1-dioxo-1,2-thiazolidin-2-yl)-2-(6-methyl-7-oxo-1H-pyrrolo[2,3-c]pyridin-4-yl)phenoxy]phenyl]ethyl]-1-piperidyl]pyridazine-3-carboxamide] | < 0.5 | < 0.5 |
| – | – | < 0.5 | – | – | < 0.5 | Cn1cc(-c2cc(C(C)(C)O)ccc2Oc2ccc(CN3CC4(C3)CN(c3ccc(C(=O)N[C@H]5CC[C@H](Oc6ccc(C#N)c(Cl)c6)CC5)nn3)C4)cc2)c2cc[nH]c2c1=O [I-123] | 0.5 to 1.5 | < 0.5 |
| – | – | – | < 0.5 | < 0.5 | – | CCS(=O)(=O)c1ccc(Oc2ccc(OCC3CCN(c4ccc(C(=O)N[C@H]5CC[C@H](Oc6ccc(C#N)c(Cl)c6)CC5)nn4)CC3)cc2)c(-c2cn(C)c(=O)c3[nH]ccc23)c1 [I-41] | < 0.5 | < 0.5 |
| – | – | – | < 0.5 | < 0.5 | – | CCS(=O)(=O)c1ccc(Oc2c(F)cc(CCC3CCN(c4ccc(C(=O)N[C@H]5CC[C@H](Oc6ccc(C#N)c(Cl)c6)CC5)nn4)CC3)cc2F)c(-c2cn(C)c(=O)c3[nH]ccc23)c1 [I-58] | > 3 | < 0.5 |
| – | – | – | < 0.5 | < 0.5 | – | CCS(=O)(=O)c1ccc(Oc2ccc(CCC3C4CN(c5ccc(C(=O)N[C@H]6CC[C@H](Oc7ccc(C#N)c(Cl)c7)CC6)nn5)CC34)cc2)c(-c2cn(C)c(=O)c3[nH]ccc23)c1 (some centres unmarked) [I-70] | < 0.5 | < 0.5 |
| – | – | – | < 0.5 | < 0.5 | – | Cn1cc(-c2cc(C(C)(C)O)ccc2Oc2ccc(C3CC(N4CCN(c5ccc(C(=O)N[C@H]6CC[C@H](Oc7ccc(C#N)c(Cl)c7)CC6)nn5)CC4)C3)cc2)c2cc[nH]c2c1=O (some centres unmarked) [I-136] | < 0.5 | < 0.5 |
| – | – | < 0.5 | – | – | < 0.5 | CCS(=O)(=O)c1ccc(Oc2ccc(CN3CC4(CCN(c5ccc(C(=O)N[C@H]6CC[C@H](Oc7ccc(C#N)c(Cl)c7)CC6)nn5)CC4)C3)c(F)c2)c(-c2cn(C)c(=O)c3[nH]ccc23)c1 [I-78] | < 0.5 | < 0.5 |
| – | – | < 0.5 | – | – | < 0.5 | Cn1cc(-c2cc(C(C)(C)O)ccc2Oc2ccc(N3CC(OC4CCN(c5ccc(C(=O)N[C@H]6CC[C@H](Oc7ccc(C#N)c(Cl)c7)CC6)nn5)CC4)C3)cc2)c2cc[nH]c2c1=O [I-146] | < 0.5 | < 0.5 |
| – | – | – | < 0.5 | < 0.5 | – | CCS(=O)(=O)c1ccc(Oc2ccc(CCCCC3CN(c4ccc(C(=O)N[C@H]5CC[C@H](Oc6ccc(C#N)c(Cl)c6)CC5)nn4)C3)cc2)c(-c2cn(C)c(=O)c3[nH]ccc23)c1 [I-73] | < 0.5 | < 0.5 |
| – | – | < 0.5 | – | – | < 0.5 | CCS(=O)(=O)c1ccc(Oc2ccc(CC3CC4(CCN(c5ccc(C(=O)N[C@H]6CC[C@H](Oc7ccc(C#N)c(Cl)c7)CC6)nn5)CC4)C3)cc2)c(-c2cn(C)c(=O)c3[nH]ccc23)c1 [I-86] | < 0.5 | < 0.5 |
| – | – | < 0.5 | – | – | 1.5 to 3 | Cn1cc(-c2cc(C(C)(C)O)ccc2Oc2ccc(C3CN(C4CCN(c5ccc(C(=O)N[C@H]6CC[C@H](Oc7ccc(C#N)c(Cl)c7)CC6)nn5)CC4)C3)cc2)c2cc[nH]c2c1=O [I-254] | 0.5 to 1.5 | < 0.5 |
| – | – | – | 0.5 to 1.5 | < 0.5 | – | Cn1cc(-c2cc(C(C)(C)O)ccc2Oc2ccc(CCC3CCN(c4ccc(C(=O)N[C@H]5CC[C@H](Oc6ccc(C#N)c(Cl)c6)CC5)nn4)CC3)c(F)c2)c2cc[nH]c2c1=O [I-113] | > 3 | < 0.5 |
| – | – | – | < 0.5 | < 0.5 | – | Cn1cc(-c2cc(C(C)(C)O)ccc2Oc2cc(F)c(CCC3CCN(c4ccc(C(=O)N[C@H]5CC[C@H](Oc6ccc(C#N)c(Cl)c6)CC5)nn4)CC3)cc2F)c2cc[nH]c2c1=O [I-116] | 0.5 to 1.5 | < 0.5 |
| – | – | – | < 0.5 | < 0.5 | – | CCC1CN(c2ccc(C(=O)N[C@H]3CC[C@H](Oc4ccc(C#N)c(Cl)c4)CC3)nn2)CC1c1ccc(Oc2ccc(S(=O)(=O)CC)cc2-c2cn(C)c(=O)c3[nH]ccc23)cc1 (some centres unmarked) [I-89] | > 3 | < 0.5 |
| – | – | < 0.5 | – | – | < 0.5 | Cn1cc(-c2cc(C(C)(C)O)ccc2Oc2ccc(CCOC3CCN(c4ccc(C(=O)N[C@H]5CC[C@H](Oc6ccc(C#N)c(Cl)c6)CC5)nn4)CC3)c(F)c2)c2cc[nH]c2c1=O [I-132] | > 3 | < 0.5 |
| – | – | – | < 0.5 | < 0.5 | – | C=CC1CN(c2ccc(C(=O)N[C@H]3CC[C@H](Oc4ccc(C#N)c(Cl)c4)CC3)nn2)CC1c1ccc(Oc2ccc(S(=O)(=O)CC)cc2-c2cn(C)c(=O)c3[nH]ccc23)cc1 (some centres unmarked) [I-87] | 0.5 to 1.5 | < 0.5 |
| – | – | – | < 0.5 | < 0.5 | – | CCS(=O)(=O)c1ccc(Oc2ccc(N3CC(C4CCN(c5ccc(C(=O)N[C@H]6CC[C@H](Oc7ccc(C#N)c(Cl)c7)CC6)nn5)CC4)C3)cc2)c(-c2cn(C)c(=O)c3[nH]ccc23)c1 [I-91] | < 0.5 | < 0.5 |
| – | – | < 0.5 | – | – | < 0.5 | CCS(=O)(=O)Nc1ccc(Oc2cccc(COC3CCN(c4ccc(C(=O)N[C@H]5CC[C@H](Oc6ccc(C#N)c(Cl)c6)CC5)nn4)CC3)c2F)c(-c2cn(C)c(=O)c3[nH]ccc23)c1 [I-26] | > 3 | < 0.5 |
| – | – | – | 0.5 to 1.5 | 0.5 to 1.5 | – | Cn1cc(-c2cc(C(C)(C)O)ccc2Oc2ccc(CCC3CCN(c4ccc(C(=O)N[C@H]5CC[C@H](Oc6ccc(C#N)c(Cl)c6)CC5)nn4)CC3)c(F)c2F)c2cc[nH]c2c1=O [I-112] | > 3 | < 0.5 |

| Structure (SMILES) | pKd (BRD4-BD1) | pKd (BRD4-BD2) | GI50 (VCaP cells; Homo sapiens) [µM] | GI50 (T47D cells) [µM] | GI50 (VCaP cells) [µM] | GI50 (T47D cells; Homo sapiens) [µM] | GI50 [1] [µM] | GI50 [2] [µM] |
| --- | --- | --- | --- | --- | --- | --- | --- | --- |
| CCS(=O)(=O)Cc1ccc(OC2CC(OCC3CCN(c4ccc(C(=O)NC5CCC(Oc6ccc(C#N)c(Cl)c6)CC5)nn4)CC3)C2)c(-c2cn(C)c(=O)c3[nH]ccc23)c1 (centres unmarked) [I-240, N-((1r,4r)-4-(3-chloro-4-cyanophenoxy)cyclohexyl)-6-(4-(((1r,3r)-3-(4-((ethylsulfonyl)methyl)-2-(6-methyl-7-oxo-6,7-dihydro-1H-pyrrolo[2,3-c]pyridin-4-yl)phenoxy)cyclobutoxy)methyl)piperidin-1-yl)pyridazine-3-carboxamide] | – | – | – | < 0.5 | < 0.5 | – | < 0.5 | < 0.5 |
